What all share (type): nucleic-acid assay
Assay [1] has as its system Nucleic Acid. Put plainly: The compound was tested for its binding affinity to Poly (dA-dT) by using ethidium displacement assay.
Assay [2] relates to Nucleic Acid. The assay can be described thus: The compound was tested for its binding affinity to Poly (dG-dC) by using ethidium displacement assay.
Assay [3] concerns Nucleic Acid. Put plainly: The compound was tested for its binding affinity to calf thymus DNA by using ethidium displacement assay. The conditions noted are these: Bos taurus.
Assay [4] relates to Nucleic Acid. Put plainly: The compound was tested for its binding affinity to T4 ethidium displacement assay.

`N=C(N)c1ccc(/N=N/Nc2ccc(C(=N)N)cc2)cc1`: the results for the C50 in assay [1] and in assay [2] were 0.9 µM and 5.7 µM, respectively.

`CN(C)CCCNC(=O)Nc1cccc(NC(=O)c2ccc(C(=O)NCCCN(C)C)cc2)c1`: the C50 in assay [1] turned out to be 4.2 µM; in assay [3], 43.5 µM; in assay [4] it was 28.6 µM; in assay [2], 222 µM.

Take `CN(C)CCCNC(=O)c1cccc(C(=O)Nc2ccc(NC(=O)CCCN(C)C)cc2)c1`: the C50 worked out at 28.4 µM in assay [1], 47.3 µM in assay [3], 35.6 µM in assay [4] and 55.6 µM in assay [2].

As to `CN(C)CCCNC(=O)c1ccc(C(=O)Nc2cccc(NC(=O)CCCN(C)C)c2)cc1`, the C50 was 1.9 µM in assay [1], 31.9 µM in assay [3], 27.1 µM in assay [4] and 142 µM in assay [2].

In the case of `C[n+]1ccc(Nc2ccc(NC(=O)c3ccc(Nc4cc[n+](C)c5ccccc45)cc3)cc2)cc1`, the C50 was determined as 0.17 µM in assay [1] and 2.8 µM in assay [2].

Take `CN1CCN(c2ccc3[nH]c(-c4ccc5[nH]c(-c6ccc(O)cc6)nc5c4)nc3c2)CC1`: the figures for the C50 in assay [1] and in assay [2] were 0.2 µM and 1.4 µM, respectively.

Turning to `CN(C)CCCNC(=O)Nc1ccc(NC(=O)c2ccc(C(=O)NCCCN(C)C)cc2)cc1`, the C50 in assay [1] was 23.5 µM; in assay [3], 44.8 µM; in assay [4] it was 35.2 µM; in assay [2] it was 77.3 µM.

For the origin of these results see ChEMBL document CHEMBL1130447, “Two-ring DNA minor-groove binders consisting of readily available, di-substituted benzene derivatives” (Bioorg Med Chem Lett, 1997).
